Measured values from patent publication US20230176066A1, “PLASMON-ENHANCED FLUORO-DOT ASSAYS” (Washington University, priority 2021, published 2023).

Legend:
JAWS II dendritic cells [1] = experiment: Fluoro-dot assay on JAWS II DC: TNFα secretion after LPS stimulation; type: cell-based, Mouse; settings: for TNFα secretion: 90 minutes incubation
Description: Mouse TNFα DuoSet ELISA kits (R&D systems, catalog number DY410, lot number P189768) was used to perform the assays. Glass-bottom 96-well black plate (P96-1.5H-N, Cellvis, Mountain View, USA) was first coated with capture antibodies (0.8 μg/ml in PBS), 100 μl/well and incubated overnight at 4° C. The plate was washed three times with 1×PBS and then blocked with 200 μl of reagent diluent (1×PBS in 1% BSA, 0.2 μm filtered). After blocking, the plates were washed three times with PBS. Mouse JAWS II dendritic cells (immature, monocytes ATCC® CRL11904™) were cultured in alpha minimum essential medium with ribonucleosides, deoxyribonucleosides, 4 mM L-glutamine, 1 mM sodium pyruvate and 5 ng/ml murine GM-CSF, 10% heat-inactivated fetal bovine serum, 50 IU/ml of penicillin, 50 μg/ml of streptomycin. JAWS II DCs were seeded on the capture coated plates, at the seeding density of 5,000 cells/well in 100 μl of medium followed by incubation at 37° C. in 5% CO2 for 30 minutes. All the non-adherent cells were removed by taking out the medium and replacing it with 100 μl of fresh medium containing varying amounts of LPS ranging from (0 to 2000 ng/ml). The cells were incubated at 37° C. in 5% CO2 for varying durations from 20 minutes to 90 minutes.
(§1) After completion of the incubation duration, the medium was decanted, and the cells were fixed using 100 μl/well of 4% neutral buffered formalin (NBF) for 20 minutes at room temperature. The plates were then washed three times with PBS and incubated with biotinylated detection antibodies, 75 ng/ml in reagent diluent for 2 hours at room temperature. The plates were washed three times using PBS and then were incubated with 100 μl/well of streptavidin Cy5-plasmonic-fluors (extinction 0.5) for 30 minutes at room temperature in dark. For comparison, 100 μl of 1 μg/ml of streptavidin-Cy5 (Thermo Fisher Scientific, catalog number SA1011) as conventional fluorophore and 1 nM of streptavidin QD655™ (Thermo Fisher Scientific, catalog number Q10123MP) was added to each well for 30 minutes at room temperature in dark. The plates were washed with PBS three times, and the nuclei of the cells were stained with 300 nM DAPI solution (Millipore Sigma, St. Louis, Mo., USA) for 5 minutes at room temperature in dark. Finally, the plates were washed three times in PBS and imaged using Nikon TsR2 epifluorescence microscope. For ELISA, culture supernatants of JAWS II DC after treatment described above were collected and TNFα concentration was measured using mouse TNFα DuoSet ELISA kits (R&D systems, catalog number DY410, lot number P189768) as per manufacturer's instructions.

JAWS II dendritic cells [2] = experiment: Multiplexed Fluoro-dot assay: TNFα and IL-6 secretion after LPS stimulation; type: cell-based, Mouse; settings: 200 ng/ml LPS
Description: Mouse TNFα DuoSet ELISA kits (R&D systems, catalog number DY410, lot number P189768) and mouse IL-6 DuoSet ELISA kit (R&D systems, catalog number DY406, lot number P234212) were used to perform the assays. Glass-bottom 96-well black plate (P96-1.5H-N, Cellvis, Mountain View, USA) was first coated with both TNFα capture antibody (0.8 μg/ml in PBS) and IL-6 capture antibody (2 μg/ml in PBS), 100 μ/well, and incubated overnight at 4° C. The plate was washed three times with 1×PBS and then blocked with 200 μl of reagent diluent (1×PBS in 1% BSA, 0.2 μm filtered). After blocking the plates were washed three times with PBS. JAWS II dendritic cells (ATCC® CRL-11904™) were cultured in alpha minimum essential medium with ribonucleosides, deoxyribonucleosides, 4 mM L-glutamine, 1 mM sodium pyruvate and 5 ng/ml murine GM-CSF, 10% heat-inactivated fetal bovine serum, 50 IU/ml of penicillin, 50 μg/ml of streptomycin. JAWS II DCs were seeded on the capture coated plates, at the seeding density of 5,000 cells/well in 100 μl of medium followed by incubation at 37° C. in 5% CO2 for 30 minutes. All the non-adherent cells were removed by taking out the medium and replacing it with 100 μl of fresh medium containing 200 ng/ml of LPS. The cells were incubated at 37° C. in 5% CO2 for 30 minutes, 1 hour, 2 hours, and 3 hours. The wells with medium and without LPS were incubated for 3 hours. […]

JAWS II dendritic cells [3] = experiment: ELISA of culture supernatant of JAWS II DC after LPS stimulation; type: cell-based, Mouse; settings: low dose and short duration of stimulation
Description: as §1

[4] = Fluorescence intensity vs. molar concentration of labels; type: physicochemical; settings: linear regression
Description: Streptavidin-conjugated Cy3-plasmonic-fluor (PF550™ ultrabright fluor) and streptavidin-conjugated Cy5-plasmonic-fluor (PF650™ ultrabright fluor) were purchased from Auragent Biosceince LLC (St. Louis, USA). The extinction was measured using a Shimadzu UV-1800 spectrophotometer. SEM images were obtained using a FEI Nova 2300 field-emission scanning electron microscope at an acceleration voltage of 10 kV. TEM images were obtained using a JEOL JEM-2100F field emission instrument. A drop of aqueous solution was dried on a carbon-coated grid, which had been made hydrophilic by glow discharge. Molar concentrations of plasmonic-fluors was calculated as described previously. Fluorescence intensity was recorded using Azure Biomolecular Imager: Sapphire RGBNIR (Azure Biosystems, Inc. Dublin, USA) and the images were analyzed using Licor Image Studio Lite.
For analyzing the statistical difference between more than two groups, one-way analysis of variance (ANOVA) with a post-hoc Tukey's honest significance test was used. Statistical significance of the data was calculated at 95% (p<0.05) confidence intervals. All values are expressed as mean±standard deviation. GraphPad Prism 6 was used for all statistical analysis. Linear regression was used to calculate the equation and to derive the slope of fluorescence intensity vs. molar concentration graph. […]

Substance	TNFα secretion (JAWS II dendritic cells [1]; 2 ng/ml LPS)	TNFα secretion (JAWS II dendritic cells [1]; 20 ng/ml LPS)	duration of treatment at which difference between treated and untreated cells was statistically significant (JAWS II dendritic cells [1]; 200 ng/ml LPS)	incubation time after which TNFα secretion was detectable (JAWS II dendritic cells [1]; 200 ng/ml LPS) [min]	TNFα secretion with increasing LPS concentration (JAWS II dendritic cells [1]; 20, 200, 2000 ng/ml LPS, 90 minutes)	LPS dose at which difference between treated and untreated cells was statistically significant (JAWS II dendritic cells [1]; 90 min incubation, number of clusters and particles/cluster)	secretion of TNFα and IL-6 with increasing duration of LPS incubation (JAWS II dendritic cells [2]; 30 minutes to 3 hours)	relative secretion of IL-6 and TNFα at longer time durations (JAWS II dendritic cells [2]; 2 hours and 3 hours)	amount of TNFα secretion by ELISA (JAWS II dendritic cells [3])	slope of fluorescence intensity vs. molar concentration, steeper than that of the conventional fluorophore (Cy5 or Cy3) [4]
lipopolysaccharide [LPS]	no significant secretion of TNFα	Substantial secretion	more than 40 minutes	40	increase in TNFα secretion	higher than 20 ng/ml	increase in the overall secretion of both cytokines	more predominant IL-6 secretion as compared to TNFα	below its detection limit	
Cy5-plasmonic-fluor: Streptavidin-conjugated Cy5 plasmon-enhanced fluorescent nanolabel purchased from Auragent Bioscience										~16,000 fold
